According to US6620792B1, “Pharmaceutical compositions containing monosialoganglioside GM1 or derivative thereof suitable for the treatment of parkinson's disease” (Fidia S.p.A., priority 1992, dated 2003):

Key:
[1] = system: MPTP-treated squirrel monkeys; test: motor behaviour rating of MPTP-treated squirrel monkeys; assay type: in vivo
Protocol: In vivo experiments with GM1 were carried out on 15 (male or female) squirrel monkeys and 4 cynomolgus monkeys.
The monkeys were administered MPTP saline solution after being anaesthesized i.m. with ketamine HCl 5 mg/kg, as follows:
2 mg/kg/dose, i.m. (squirrel monkeys).
MPTP was administered every third day until complete manifestation of parkinsonian motor symptomatology was obtained, i.e. akinesia, lack of responsiveness to stimulation, inability to climb, to feed autonomously, and to groom. Thirty points min. (as will be defined in the explanation of FIG. 1) had to be obtained during the 48-60 hours following the last MPTP administration; then animals in pairs were subdivided at random into two treatment groups, i.e. treatment with GM1 or with saline solution. […]
In particular, the following functions were recorded: overall activity, ability to climb, locomotion/gait, upper and lower limb movements, detailed motor ability, bradykinesia/akinesia, dyskinesia/dystonia, carriage, tremor, balance, grooming ability, sudden immobility during movements, and ability to feed. […]
FIGS. 1 and 2 are now being considered in detail. […] Columns represent the average points (±S.D.); normal point is 0, MPTP points are the points recorded after the last MPTP injection but prior to the administration of associated GM1-saline solution. […]

[2] = system: MPTP-treated cynomolgus monkeys; test: object grasping test in MPTP-treated cynomolgus monkeys; assay type: in vivo; settings: GM1 15 mg/kg/day i.m., investigation end
Protocol: The behaviour and neurologic functions of cynomolgus monkeys were also tested. Said monkeys were also trained to grasp an object, which has proven to be indicative of the motor and cognitive functions of MPTP-treated monkeys (Taylor J. R. et al., Brain, 113, 617, 1990).
The grasping test was carried out according to Diamond A.: “The development and neural bases of higher cognitive functions”, Annals of the New York Academy of Sciences, vol. 608, A. Diamond Ed. (The New York Academy of Sciences, New York, 637-676, 1990).
Briefly, monkeys were trained to stretch their arm out of their cage to grasp food (raisins or apple) from a Plexiglas box (15 cm×15 cm×5 cm), open on one side and fastened to a platform allowing side movement and rotation.
The box open side could happen to be in front of, on the left or on the right side of the monkey. Each experiment consisted of 30 tests. The following events were recorded: successful arm stretchings (food grasped at the first attempt), correct stretchings (food grasped after various attempts), and “barrier” stretchings (i.e. towards the closed side of the box rather than-around the box until reaching the open side of same). Should no food be grasped within 5 minutes, the test was judged to be without response.
FIG. 2 illustrates the effects produced by MPTP and GM1 on cynomolgus monkeys in the “object grasping” test. […]

cerebellar granule cells = test: TOPA neurotoxicity in cerebellar granule cell cultures, MTT assay; assay type: cell-based; settings: for Neuronal survival (%): control = 100%
Protocol: Granular cell cultures were obtained from 8-day rat cerebella and cultured (3×10^6 cells) on plates coated with poly-L-lysine substrate according to Skaper et al. (Skaper S. D. et al.: “Culture and use of primary and clonal neural cells”, Methods in Neurosciences, Ed. by P. M. Conn, Vol. 2, pp. 17-33, Academic Press, Orlando, 1990).
Twenty-four hours later, cytosine arabinoside (10 μM) was added to inhibit non-neuronal proliferation. Cerebellar granule cells were used 10-12 days later without changing the medium.
Cells were incubated with TOPA either for 40 minutes (100 μM acute exposure) or for 24 h (10 μM prolonged exposure).
Treatment with GM1, AGF2, AGF4 (100 μM) and LIGA 20 (1-30 μm) was carried out as follows:
2-hour pretreatment before acute incubation with TOPA;
cotreatment only with LIGA 20 before acute incubation with TOPA;
pretreatment with/without cotreatment before (100 μM for 2 h) and/or during (100 μM for 24 h) prolonged incubation with TOPA. TOPA cytotoxicity was determined by evaluating cellular survival, and more precisely:
MTT colorimetric assay of cerebellar neurons, as described by Mosmann (Mosmann T.: “Rapid colorimetric assay for cellular growth and survival: application to proliferation and cytotoxicity assays”, J. Immunol. Meth., 65, 55-63, 1983).
Cytotoxicity is expressed as per cent cellular survival.
The results of the two tests (in triplicate) were analysed statistically according to Duncan's test. A brief description of same is reported below:
In FIG. 3 the dose-dependent protective effect of LIGA20 against TOPA-induced death of cultured cerebellar granule cells is represented. Cells were exposed concurrently to 100 μM TOPA and 1-30 μM LIGA20 or 200 μM GM1 in Locke's solution for 45 minutes (24° C.), washed and returned to their original medium. Survival was assessed 24 h later by the MTT method. Means±S.E.M. (n=9, 3 experiments). TOPA ( ), LIGA 20 ( ), GM1 ( ).
In vitro granule cells at the 11th day were incubated as indicated above. In the 40-minute exposure to TOPA, GM1 (100 μM) was used in 2-h pretreatment only. In the […] exposure to TOPA, GM1 (100 μM) was used either in 2-h pretreatment only or in 2-h pretreatment and in cotreatment with TOPA. The values are expressed with reference to the corresponding control cultures (=100%) and are an average (±S.D.) of two determinations, each being carried out in triplicate.

With monosialoganglioside [GM1] the “motor behaviour at the investigation end” value ([1]; GM1 30 mg/kg/day i.m., p<0.01 vs saline solution) was “almost normal behaviour”, the recovered motor behaviour ([1]; GM1 chronic i.m. administration, end of 6-8 weeks' investigation, MPTP monkeys, species not separated (FIG. 1)) was 86-89% and the “object grasping test performance” value [2] was “fulfilled the task almost perfectly”. For the same substance, the “Neuronal survival (%)” value (cerebellar granule cells; GM1 100 μM 2-h pretreatment and cotreatment, TOPA 10 μM 24-h exposure) was 75.4 ± 5.5 (b) %, the “Neuronal survival (%)” value (cerebellar granule cells; GM1 100 μM 2-h pretreatment only, TOPA 10 μM 24-h exposure) was 57.0 ± 6.5 (a) % and the “Neuronal survival (%)” value (cerebellar granule cells; GM1 100 μM 2-h pretreatment only, then TOPA 100 μM 40-minute exposure) was 72.4 ± 5.8 (a) %. The “protection against the acute toxicity of TOPA in cotreatment” value (cerebellar granule cells; GM1 up to 200 μM, cotreatment with 100 μM TOPA for 45 minutes (FIG. 3)) was “not active”.
